Measured values reported in US5672584A (priority 1995, dated 1997).
Read-outs that look alike come from different tables or passages of the source. Where a SMILES comes first, the peptide text is derived from it. Where no end group is shown, it is not given here.

Experiments:
[1] = rat, whole blood, pH 7.4
[2] = incubated in human blood, pH 7.4, 37° C.
Caco-2 cell monolayer = conditions: for increase in permeability compared to capped hexapeptide Ac-Trp-Ala-Gly-Gly-Asp-Ala-NH2: Caco-2 Papp ratio; for Papp (apparent permeability coefficient): applied to AP side, flux to BL side of Caco-2 monolayer; for permeation to BL side of the monolayer: AP-to-BL, in the absence or presence of protease inhibitors (bestatin, diprotin, captopril)
[3] = HBSS, pH 7.4, 37° C.
in vitro = conditions: rat, blood, pH 7.4
[4] = human, whole blood, pH 7.4
[5] = human, Caco-2

Compound: C[C@@H]1NC(=O)[C@H](Cc2c[nH]c3ccccc23)NC(=O)OCOC(=O)[C@H](C)NC(=O)[C@H](CC(=O)O)NC(=O)CNC(=O)CNC1=O [1a] (HELM PEPTIDE1{W.A.G.G.D.A}|CHEM1{[O=C(OCO[*:2])[*:1]]}$PEPTIDE1,CHEM1,1:R1-1:R1|PEPTIDE1,CHEM1,6:R2-1:R2$$$V2.0)
- half-life [1]: 1.85 h
- T1/2 in human blood [2]: 1.65 h
- increase in permeability compared to capped hexapeptide Ac-Trp-Ala-Gly-Gly-Asp-Ala-NH2 (Caco-2 cell monolayer): 5-6 fold
- Papp (apparent permeability coefficient) (Caco-2 cell monolayer): 1.17±0.11×10^-7 cm/sec.
- half-life of chemical stability (T1/2) [3]: 3.47 h

Compound: Cc1cc(C)c2c(c1)OC(=O)[C@H](C)NC(=O)[C@H](CC(=O)O)NC(=O)CNC(=O)CNC(=O)[C@H](C)NC(=O)[C@H](Cc1c[nH]c3ccccc13)NC(=O)CC2(C)C [1b] (HELM PEPTIDE1{W.A.G.G.D.A}|CHEM1{[Cc1cc(C)c(C(C)(C)CC(=O)[*:1])c(O[*:2])c1]}$PEPTIDE1,CHEM1,1:R1-1:R1|PEPTIDE1,CHEM1,6:R2-1:R2$$$V2.0)
- increase in permeability compared to capped hexapeptide Ac-Trp-Ala-Gly-Gly-Asp-Ala-NH2 (Caco-2 cell monolayer): 5-6 fold
- Papp (apparent permeability coefficient) (Caco-2 cell monolayer): 1.21±0.36×10^-7 cm/sec.
- half-life (in vitro): 2.88 h
- half-life of chemical stability (T1/2) [3]: 12.7 h
- half-life [4]: 2.88 h

Compound: Ac-WAGGDA-NH2 [Ac-Trp-Ala-Gly-Gly-Asp-Ala-NH2, reference compound]
- remaining at 3 h [5]: 75.8 ± 4%
- Papp (apparent permeability coefficient) (Caco-2 cell monolayer): 2.1±0.5×10^-8 cm/sec.

Compound: WAGGDA [Trp-Ala-Gly-Gly-Asp-Ala, reference compound]
- remaining at 2 h [5]: 0.8 ± 0.1%
- permeation to BL side of the monolayer (Caco-2 cell monolayer): no detectable quantities
- permeation to BL side of the monolayer (Caco-2 cell monolayer; listed as native peptide): totally impermeable
